Measurements published in patent publication US20190031717A1, “MULTI-FUNCTIONAL FUSION POLYPEPTIDE, PREPARATION METHOD THEREOF, AND APPLICATION OF SAME” (NANJING ANJI BIOLOGICAL TECHNOLOGY CO., LTD, priority 2016, published 2019).

Assays:
Adenocarcinoma = experiment: MTT assay, lung cancer tumor cells; format: cell-based, human; set-up: concentration or dose not given beside the values; settings: 48 h, mean ± SD
Protocol: (§1) The inhibition of the growth of human lung cancer tumor cells by the polypeptide of the present invention was examined by MTT assay. The lung cancer tumor cells were cultured in a 37° C., 5% (volume fraction) CO2 incubator to a density of 90% or more, and collected by trypsinization. The cells were resuspended in the culture medium and counted under a microscope to adjust the cell concentration to 2.0×10^4 cells/mL, the cell suspension was inoculated into a 96-well plate at 100 μL per well, and cultured overnight at 37° C. in a 5% (volume fraction) CO2 incubator. After the cells were completely adhered, the polypeptide of the present invention was added as a drug-administered group, and a culture solution containing no drug was used as a blank control group, and the culture solution was diluted to each predetermined concentration. Each dilution was separately added to a 96-well plate at 100 μL per well and incubated for 48 h at 37° C. in a 5% (volume fraction) CO2 incubator. 20 μL of 5 mg/mL MTT was added to each well of a 96-well plate, and incubation was continued for 4 hours. The medium was aspirated, and the cells were dissolved in 100 μL of DMSO per well. The absorbance was measured by a microplate reader at a detection wavelength of 570 nm and a reference wavelength of 630 nm, and the growth inhibition rate was calculated as follows: tumor growth inhibition rate (%)=(1−administered group absorbance value/unadministered group absorbance value)×100%, and the experiment was repeated 3 times independently. The results obtained by the test were expressed as mean±standard deviation. The results in Table 6 indicate that the polypeptides of the present invention have a good inhibitory effect on proliferation of a variety of human lung cancer tumors (FIG. 5).

Adenosquamous carcinoma = experiment: MTT assay, lung cancer tumor cells; format: cell-based, human; set-up: concentration or dose not given beside the values; settings: 48 h, mean ± SD
Protocol: as §1

Large cell lung cancer = experiment: MTT assay, lung cancer tumor cells; format: cell-based, human; set-up: concentration or dose not given beside the values; settings: 48 h, mean ± SD
Protocol: as §1

[1] = tested on: Non-small cell lung cancer; experiment: MTT assay, lung cancer tumor cells; format: cell-based, human; set-up: concentration or dose not given beside the values; settings: 48 h, mean ± SD
Protocol: as §1

Small Cell Lung Cancer = experiment: MTT assay, lung cancer tumor cells; format: cell-based, human; set-up: concentration or dose not given beside the values; settings: 48 h, mean ± SD
Protocol: as §1

Squamous cell carcinoma = experiment: MTT assay, lung cancer tumor cells; format: cell-based, human; set-up: concentration or dose not given beside the values; settings: 48 h, mean ± SD
Protocol: as §1

Bladder Cancer = experiment: MTT assay, tumor cells; format: cell-based, human; set-up: concentration or dose not given beside the values; settings: 48 hours, mean ± SD
Protocol: (§2) A variety of human tumor cells were cultured in a 37° C., 5% (volume fraction) CO2 incubator to a density of 90% or more, collected by trypsinization, resuspended in a culture medium and counted under a microscope, and the cells were harvested. The concentration was adjusted to 2.0×10^4 cells/mL, the cell suspension was inoculated into a 96-well plate at 100 μL per well and cultured overnight at 37° C. in a 5% (volume fraction) CO2 incubator. After the cells were completely adhered, the polypeptides of the present invention were added as drug-administered groups, and a culture solution containing no drug was used as a blank control group, and the culture solution was diluted to each predetermined concentration. Each dilution was separately added to a 96-well plate at 100 μL per well and incubated for 48 hours at 37° C. in a 5% (volume fraction) CO2 incubator. 20 μL of 5 mg/mL MTT was added to each well of a 96-well plate and incubation was continued for 4 h. The medium was aspirated and dissolved in 100 μL of DMSO per well. The absorbance was measured with a microplate reader at a detection wavelength of 570 nm and a reference wavelength of 630 nm, and the growth inhibition rate was calculated as follows: tumor growth inhibition rate (%)=(1−absorbance value of the administered group/unadministered group absorbance value)×100%, and the experiment was repeated 3 times independently. The results obtained from the test were expressed as mean±standard deviation, and the tumor growth inhibition rate of the unadministered group was 0. The results in Table 7 indicate that the polypeptides of the present invention have a significant inhibitory effect on the growth of various tumors (FIG. 6).

Brain tumor = experiment: MTT assay, tumor cells; format: cell-based, human; set-up: concentration or dose not given beside the values; settings: 48 hours, mean ± SD
Protocol: as §2

Breast cancer = experiment: MTT assay, tumor cells; format: cell-based, human; set-up: concentration or dose not given beside the values; settings: 48 hours, mean ± SD
Protocol: as §2

Cervical cancer = experiment: MTT assay, tumor cells; format: cell-based, human; set-up: concentration or dose not given beside the values; settings: 48 hours, mean ± SD
Protocol: as §2

Colorectal cancer = experiment: MTT assay, tumor cells; format: cell-based, human; set-up: concentration or dose not given beside the values; settings: 48 hours, mean ± SD
Protocol: as §2

Esophageal cancer = experiment: MTT assay, tumor cells; format: cell-based, human; set-up: concentration or dose not given beside the values; settings: 48 hours, mean ± SD
Protocol: as §2

Gastric cancer = experiment: MTT assay, tumor cells; format: cell-based, human; set-up: concentration or dose not given beside the values; settings: 48 hours, mean ± SD
Protocol: as §2

Head and neck cancer = experiment: MTT assay, tumor cells; format: cell-based, human; set-up: concentration or dose not given beside the values; settings: 48 hours, mean ± SD
Protocol: as §2

Hemangioma = experiment: MTT assay, tumor cells; format: cell-based, human; set-up: concentration or dose not given beside the values; settings: 48 hours, mean ± SD
Protocol: as §2

Kidney cancer = experiment: MTT assay, tumor cells; format: cell-based, human; set-up: concentration or dose not given beside the values; settings: 48 hours, mean ± SD
Protocol: as §2

Liver cancer = experiment: MTT assay, tumor cells; format: cell-based, human; set-up: concentration or dose not given beside the values; settings: 48 hours, mean ± SD
Protocol: as §2

Melanoma = experiment: MTT assay, tumor cells; format: cell-based, human; set-up: concentration or dose not given beside the values; settings: 48 hours, mean ± SD
Protocol: as §2

Ovarian cancer = experiment: MTT assay, tumor cells; format: cell-based, human; set-up: concentration or dose not given beside the values; settings: 48 hours, mean ± SD
Protocol: as §2

Pancreatic cancer = experiment: MTT assay, tumor cells; format: cell-based, human; set-up: concentration or dose not given beside the values; settings: 48 hours, mean ± SD
Protocol: as §2

Prostate cancer = experiment: MTT assay, tumor cells; format: cell-based, human; set-up: concentration or dose not given beside the values; settings: 48 hours, mean ± SD
Protocol: as §2

Thyroid cancer = experiment: MTT assay, tumor cells; format: cell-based, human; set-up: concentration or dose not given beside the values; settings: 48 hours, mean ± SD
Protocol: as §2

Uterine cancer = experiment: MTT assay, tumor cells; format: cell-based, human; set-up: concentration or dose not given beside the values; settings: 48 hours, mean ± SD
Protocol: as §2

sarcoma = experiment: MTT assay, tumor cells; format: cell-based, human; set-up: concentration or dose not given beside the values; settings: 48 hours, mean ± SD
Protocol: as §2

Staphylococcal fluid = experiment: Mouse pneumonia model, bacterial; format: in vivo, BALB/C mice; set-up: concentration or dose not given beside the values; settings: mean ± SD
Protocol: (§3) The mouse pneumonia model was successfully established by the nose-drop method. To build the mouse pneumonia model, BALB/C mice with a body mass of 16-22 g were selected and anesthetized pneumonia chain was prepared after anesthesia with ether on day 0, day 1, and day 2. Staphylococcal fluid, adenovirus concentrate, Mycoplasma pneumoniae, Chlamydia pneumoniae, protozoa, and pneumonia fungi were slowly dripped into the nasal cavity of the mice, so that they enter the tracheobronchial. During the operation process, care was exercised to prevent bacterial fluid from flowing into the esophagus, which leads to inactivation the bacterial fluid. After successful model establishment, the polypeptides of the present invention were administered, and the results were shown in Table 5. […] The results were expressed in average value±standard deviation.

adenovirus concentrate = experiment: Mouse pneumonia model, viral; format: in vivo, BALB/C mice; settings: mean ± SD
Protocol: as §3

Mycoplasma pneumoniae = experiment: Mouse pneumonia model, mycoplasma; format: in vivo, BALB/C mice; set-up: concentration or dose not given beside the values; settings: mean ± SD
Protocol: as §3

Chlamydia pneumoniae = experiment: Mouse pneumonia model, chlamydia; format: in vivo, BALB/C mice; set-up: concentration or dose not given beside the values; settings: mean ± SD
Protocol: as §3

protozoa = experiment: Mouse pneumonia model, protozoal; format: in vivo, BALB/C mice; set-up: concentration or dose not given beside the values; settings: mean ± SD
Protocol: as §3

pneumonia fungi = experiment: Mouse pneumonia model, fungal; format: in vivo, BALB/C mice; set-up: concentration or dose not given beside the values; settings: mean ± SD
Protocol: as §3

[2] = tested on: Pneumonia caused by lung infection; experiment: Mouse pneumonia model, pneumonia caused by lung infection; format: in vivo, BALB/C mice; set-up: concentration or dose not given beside the values; settings: mean ± SD
Protocol: as §3

CC(=O)O[C@@]12CO[C@@H]1C[C@H](O)[C@@]1(C)C(=O)[C@H](O)C3=C(C)[C@@H](OC(=O)[C@H](O)[C@@H](NC(=O)OC(C)(C)C)c4ccccc4)C[C@@](O)([C@@H](OC(=O)c4ccccc4)[C@H]21)C3(C)C [Docetaxel, reference compound]
tumor growth inhibition rate, MTT Assay (Adenocarcinoma): 52.54 ± 15.12% | tumor growth inhibition rate, MTT Assay (Adenosquamous carcinoma): 35.87 ± 13.84% | tumor growth inhibition rate, MTT Assay (Large cell lung cancer): 52.69 ± 16.12% | tumor growth inhibition rate, MTT Assay [1]: 55.50 ± 19.83% | tumor growth inhibition rate, MTT Assay (Small Cell Lung Cancer): 42.16 ± 14.54% | tumor growth inhibition rate, MTT Assay (Squamous cell carcinoma): 39.78 ± 10.73% | tumor growth inhibition rate, MTT Assay (Bladder Cancer): 34.82 ± 10.53% | tumor growth inhibition rate, MTT Assay (Brain tumor): 45.90 ± 13.88% | tumor growth inhibition rate, MTT Assay (Breast cancer): 61.44 ± 18.58% | tumor growth inhibition rate, MTT Assay (Cervical cancer): 50.54 ± 21.82% | tumor growth inhibition rate, MTT Assay (Colorectal cancer): 57.20 ± 17.30% | tumor growth inhibition rate, MTT Assay (Esophageal cancer): 44.16 ± 13.36% | tumor growth inhibition rate, MTT Assay (Gastric cancer): 43.57 ± 16.44% | tumor growth inhibition rate, MTT Assay (Head and neck cancer): 32.59 ± 9.86% | tumor growth inhibition rate, MTT Assay (Hemangioma): 68.47 ± 20.71% | tumor growth inhibition rate, MTT Assay (Kidney cancer): 40.23 ± 15.44% | tumor growth inhibition rate, MTT Assay (Liver cancer): 48.95 ± 14.80% | tumor growth inhibition rate, MTT Assay (Melanoma): 38.17 ± 11.54% | tumor growth inhibition rate, MTT Assay (Ovarian cancer): 60.97 ± 18.44% | tumor growth inhibition rate, MTT Assay (Pancreatic cancer): 49.42 ± 18.21% | tumor growth inhibition rate, MTT Assay (Prostate cancer): 54.25 ± 19.68% | tumor growth inhibition rate, MTT Assay (Thyroid cancer): 42.03 ± 12.71% | tumor growth inhibition rate, MTT Assay (Uterine cancer): 52.33 ± 19.09% | tumor growth inhibition rate, MTT Assay (sarcoma): 44.26 ± 13.39%

Penicillin [reference compound]
Inhibitory Effects on Various Pulmonary Infections (Staphylococcal fluid): 26.52 ± 11.07% | Inhibitory Effects on Various Pulmonary Infections (adenovirus concentrate): 35.02 ± 15.58% | Inhibitory Effects on Various Pulmonary Infections (Mycoplasma pneumoniae): 23.91 ± 14.27% | Inhibitory Effects on Various Pulmonary Infections (Chlamydia pneumoniae): 28.10 ± 14.99% | Inhibitory Effects on Various Pulmonary Infections (protozoa): 37.00 ± 20.45% | Inhibitory Effects on Various Pulmonary Infections (pneumonia fungi): 35.13 ± 16.62% | Inhibitory Effects on Various Pulmonary Infections [2]: 31.03 ± 18.46%
